Experimental data reported in patent US20070249725A1, “Pharmaceutical formulations of sympathetic antagonist for the treatment of chronic muscle pain” (priority 2006, published 2007).
Where a name gives a salt, the structure may show the parent alone.

Test: Adverse events in subjects treated by trigger point injection (Example 1)
Assay type: in vivo, human
Protocol: A total of 326 male and female subjects, approximately 15 to 85 years old with pain of 4-72 month duration were treated with various doses of phenoxybenzamine. If a potential subject had pain that was clearly muscular and clearly not due to arthritis, nerve root compression or other extramuscular cause, the subject was considered a candidate for phenoxybenzamine hydrochloride injection. Trigger points were identified by palpation. A monopolar EMG needle was then inserted into the trigger point. Another monopolar EMG needle was inserted into a nearby nontender fibers of the same muscle. […] The treatment was repeated in up to 10-12 trigger points per treatment session. Subjects could return for up to 6 treatment sessions, depending on the extent of their pain. The initial treatment was with a dose of 25 mg of phenoxybenzamine hydrochloride in an injection volume of 2 ml. […] For 318 subjects, data were available for analysis for the doses of phenoxybenzamine hydrochloride used, efficacy and incidence of serious adverse events.
The frequencies of other adverse events occurring in the first 199 subjects treated, including the first 87 subjects treated with the 3 mg dose, are given in the table below. Results with an additional 131 subjects treated with the 3 mg dose have been similar.

[1] = 3 mg, multiple injections, N 87
[2] = 10-12.5 mg, multiple injections, N 89
[3] = 10-25 mg, single injection, N 23

What does the source list for `CC(COc1ccccc1)N(CCCl)Cc1ccccc1` (stereo not shown) [Phenoxybenzamine Hydrochloride, phenoxybenzamine hydrochloride]?
frequencies of adverse events in additional 131 subjects compared with Table 3 (3 mg dose): similar; Bruising at injection site, % of subjects [1]: (1%); Bruising at injection site, number of subjects [1]: 1; Burning, % of subjects [1]: (0%); Cold sensation, % of subjects [1]: (0%); Diaphoresis, % of subjects [1]: (0%); Diarrhea, % of subjects [1]: (0%); Dizziness, % of subjects [1]: (3%); Dizziness, number of subjects [1]: 3; Dry mouth, % of subjects [1]: (0%); Dysphagia, % of subjects [1]: (0%); Dyspnea, % of subjects [1]: (1%); Dyspnea, number of subjects [1]: 1; Epistaxis, % of subjects [1]: (0%); Fatigue, % of subjects [1]: (3%); Fatigue, number of subjects [1]: 3; Fever, % of subjects [1]: (0%); Flu syndrome, % of subjects [1]: (1%); Flu syndrome, number of subjects [1]: 1; Hair disorder, % of subjects [1]: (1%); Hair disorder, number of subjects [1]: 1; Headache, % of subjects [1]: (3%); Headache, number of subjects [1]: 3; Hypesthesia, % of subjects [1]: (0%); Injection site drainage, % of subjects [1]: (0%); Injection site soreness, % of subjects [1]: (21%); Injection site soreness, number of subjects [1]: 18; Injection site swelling, % of subjects [1]: 23%; Injection site swelling, number of subjects [1]: 20; Lethargy, % of subjects [1]: (1%); Lethargy, number of subjects [1]: 1; Lightheadedness, % of subjects [1]: (0%); Nasal disorder, % of subjects [1]: (0%); Nausea, % of subjects [1]: (2%); Nausea, number of subjects [1]: 2; Pain, % of subjects [1]: (5%); Pain, number of subjects [1]: 4; Palpitations, % of subjects [1]: (0%); Paresthesia, % of subjects [1]: (0%); Pharyngitis, % of subjects [1]: (0%); Pruritis, % of subjects [1]: (0%); Rash, % of subjects [1]: 0%; Stiffness, % of subjects [1]: (1%); Stiffness, number of subjects [1]: 1; Swelling, % of subjects [1]: (0%); Syncope, % of subjects [1]: (0%); Tachycardia, % of subjects [1]: (0%); Taste disorder, % of subjects [1]: (1%); Taste disorder, number of subjects [1]: 1; Tremor, % of subjects [1]: (1%); Tremor, number of subjects [1]: 1; Vomiting, % of subjects [1]: (0%); Bruising at injection site, % of subjects [2]: (11%); Bruising at injection site, number of subjects [2]: 10; Burning, % of subjects [2]: (3%); Burning, number of subjects [2]: 3; Cold sensation, % of subjects [2]: (1%); Cold sensation, number of subjects [2]: 1; Diaphoresis, % of subjects [2]: (1%); Diaphoresis, number of subjects [2]: 1; Diarrhea, % of subjects [2]: (2%); Diarrhea, number of subjects [2]: 2; Dizziness, % of subjects [2]: (20%); Dizziness, number of subjects [2]: 18; Dry mouth, % of subjects [2]: (1%); Dry mouth, number of subjects [2]: 1; Dysphagia, % of subjects [2]: (0%); Dyspnea, % of subjects [2]: (3%); Dyspnea, number of subjects [2]: 3; Epistaxis, % of subjects [2]: (0%); Fatigue, % of subjects [2]: (4%); Fatigue, number of subjects [2]: 4; Fever, % of subjects [2]: (1%); Fever, number of subjects [2]: 1; Flu syndrome, % of subjects [2]: (1%); Flu syndrome, number of subjects [2]: 1; Hair disorder, % of subjects [2]: (0%); Headache, % of subjects [2]: (10%); Headache, number of subjects [2]: 9; Hypesthesia, % of subjects [2]: (4%); Hypesthesia, number of subjects [2]: 4; Injection site drainage, % of subjects [2]: (2%); Injection site drainage, number of subjects [2]: 2; Injection site soreness, % of subjects [2]: (37%); Injection site soreness, number of subjects [2]: 33; Injection site swelling, % of subjects [2]: 45%; Injection site swelling, number of subjects [2]: 40; Lethargy, % of subjects [2]: (0%); Lightheadedness, % of subjects [2]: (13%); Lightheadedness, number of subjects [2]: 12; Nasal disorder, % of subjects [2]: (2%); Nasal disorder, number of subjects [2]: 2; Nausea, % of subjects [2]: (18%); Nausea, number of subjects [2]: 16; Pain, % of subjects [2]: (0%); Palpitations, % of subjects [2]: (1%); Palpitations, number of subjects [2]: 1; Paresthesia, % of subjects [2]: (3%); Paresthesia, number of subjects [2]: 3; Pharyngitis, % of subjects [2]: (1%); Pharyngitis, number of subjects [2]: 1; Pruritis, % of subjects [2]: (1%); Pruritis, number of subjects [2]: 1; Rash, % of subjects [2]: 2%; Rash, number of subjects [2]: 2; Stiffness, % of subjects [2]: (2%); Stiffness, number of subjects [2]: 2; Swelling, % of subjects [2]: (2%); Swelling, number of subjects [2]: 2; Syncope, % of subjects [2]: (7%); Syncope, number of subjects [2]: 6; Tachycardia, % of subjects [2]: (0%); Taste disorder, % of subjects [2]: (2%); Taste disorder, number of subjects [2]: 2; Tremor, % of subjects [2]: (1%); Tremor, number of subjects [2]: 1; Vomiting, % of subjects [2]: (8%); Vomiting, number of subjects [2]: 7; Bruising at injection site, % of subjects [3]: (0%); Burning, % of subjects [3]: (4%); Burning, number of subjects [3]: 1; Cold sensation, % of subjects [3]: (4%); Cold sensation, number of subjects [3]: 1; Diaphoresis, % of subjects [3]: (0%); Diarrhea, % of subjects [3]: (0%); Dizziness, % of subjects [3]: (0%); Dry mouth, % of subjects [3]: (0%); Dysphagia, % of subjects [3]: (4%); Dysphagia, number of subjects [3]: 1; Dyspnea, % of subjects [3]: (0%); Epistaxis, % of subjects [3]: (4%); Epistaxis, number of subjects [3]: 1; Fatigue, % of subjects [3]: (4%); Fatigue, number of subjects [3]: 1; Fever, % of subjects [3]: (0%); Flu syndrome, % of subjects [3]: (0%); Hair disorder, % of subjects [3]: (0%); Headache, % of subjects [3]: (0%); Hypesthesia, % of subjects [3]: (9%); Hypesthesia, number of subjects [3]: 2; Injection site drainage, % of subjects [3]: (0%); Injection site soreness, % of subjects [3]: (35%); Injection site soreness, number of subjects [3]: 8; Injection site swelling, % of subjects [3]: 26%; Injection site swelling, number of subjects [3]: 6; Lethargy, % of subjects [3]: (0%); Lightheadedness, % of subjects [3]: (4%); Lightheadedness, number of subjects [3]: 1; Nasal disorder, % of subjects [3]: (9%); Nasal disorder, number of subjects [3]: 2; Nausea, % of subjects [3]: (0%); Pain, % of subjects [3]: (26%); Pain, number of subjects [3]: 6; Palpitations, % of subjects [3]: (0%); Paresthesia, % of subjects [3]: (0%); Pharyngitis, % of subjects [3]: (0%); Pruritis, % of subjects [3]: (0%); Rash, % of subjects [3]: 4%; Rash, number of subjects [3]: 1; Stiffness, % of subjects [3]: (13%); Stiffness, number of subjects [3]: 3; Swelling, % of subjects [3]: (0%); Syncope, % of subjects [3]: (0%); Tachycardia, % of subjects [3]: (4%); Tachycardia, number of subjects [3]: 1; Taste disorder, % of subjects [3]: (4%); Taste disorder, number of subjects [3]: 1; Tremor, % of subjects [3]: (0%); Vomiting, % of subjects [3]: (0%); Bruising at injection site, % of subjects (Total of all doses, N 199): (6%); Bruising at injection site, number of subjects (Total of all doses, N 199): 11; Burning, % of subjects (Total of all doses, N 199): (2%); Burning, number of subjects (Total of all doses, N 199): 4; Cold sensation, % of subjects (Total of all doses, N 199): (1%); Cold sensation, number of subjects (Total of all doses, N 199): 2; Diaphoresis, % of subjects (Total of all doses, N 199): (0%); Diaphoresis, number of subjects (Total of all doses, N 199): 1; Diarrhea, % of subjects (Total of all doses, N 199): (1%); Diarrhea, number of subjects (Total of all doses, N 199): 2; Dizziness, % of subjects (Total of all doses, N 199): (11%); Dizziness, number of subjects (Total of all doses, N 199): 21; Dry mouth, % of subjects (Total of all doses, N 199): (0%); Dry mouth, number of subjects (Total of all doses, N 199): 1; Dysphagia, % of subjects (Total of all doses, N 199): (0%); Dysphagia, number of subjects (Total of all doses, N 199): 1; Dyspnea, % of subjects (Total of all doses, N 199): (2%); Dyspnea, number of subjects (Total of all doses, N 199): 4; Epistaxis, % of subjects (Total of all doses, N 199): (0%); Epistaxis, number of subjects (Total of all doses, N 199): 1; Fatigue, % of subjects (Total of all doses, N 199): (4%); Fatigue, number of subjects (Total of all doses, N 199): 8; Fever, % of subjects (Total of all doses, N 199): (0%); Fever, number of subjects (Total of all doses, N 199): 1; Flu syndrome, % of subjects (Total of all doses, N 199): (1%); Flu syndrome, number of subjects (Total of all doses, N 199): 2; Hair disorder, % of subjects (Total of all doses, N 199): (0%); Hair disorder, number of subjects (Total of all doses, N 199): 1; Headache, % of subjects (Total of all doses, N 199): (6%); Headache, number of subjects (Total of all doses, N 199): 12; Hypesthesia, % of subjects (Total of all doses, N 199): (3%); Hypesthesia, number of subjects (Total of all doses, N 199): 6; Injection site drainage, % of subjects (Total of all doses, N 199): (1%); Injection site drainage, number of subjects (Total of all doses, N 199): 2; Injection site soreness, % of subjects (Total of all doses, N 199): (30%); Injection site soreness, number of subjects (Total of all doses, N 199): 59; Injection site swelling, % of subjects (Total of all doses, N 199): 33%; Injection site swelling, number of subjects (Total of all doses, N 199): 66; Lethargy, % of subjects (Total of all doses, N 199): (0%); Lethargy, number of subjects (Total of all doses, N 199): 1; Lightheadedness, % of subjects (Total of all doses, N 199): (7%); Lightheadedness, number of subjects (Total of all doses, N 199): 13; Nasal disorder, % of subjects (Total of all doses, N 199): (2%); Nasal disorder, number of subjects (Total of all doses, N 199): 4; Nausea, % of subjects (Total of all doses, N 199): (9%); Nausea, number of subjects (Total of all doses, N 199): 18; Pain, % of subjects (Total of all doses, N 199): (5%); Pain, number of subjects (Total of all doses, N 199): 10; Palpitations, % of subjects (Total of all doses, N 199): (0%); Palpitations, number of subjects (Total of all doses, N 199): 1; Paresthesia, % of subjects (Total of all doses, N 199): (2%); Paresthesia, number of subjects (Total of all doses, N 199): 3; Pharyngitis, % of subjects (Total of all doses, N 199): (0%); Pharyngitis, number of subjects (Total of all doses, N 199): 1; Pruritis, % of subjects (Total of all doses, N 199): (0%); Pruritis, number of subjects (Total of all doses, N 199): 1; Rash, % of subjects (Total of all doses, N 199): 2%; Rash, number of subjects (Total of all doses, N 199): 3; Stiffness, % of subjects (Total of all doses, N 199): (3%); Stiffness, number of subjects (Total of all doses, N 199): 6; Swelling, % of subjects (Total of all doses, N 199): (1%); Swelling, number of subjects (Total of all doses, N 199): 2; Syncope, % of subjects (Total of all doses, N 199): (3%); Syncope, number of subjects (Total of all doses, N 199): 6; Tachycardia, % of subjects (Total of all doses, N 199): (0%); Tachycardia, number of subjects (Total of all doses, N 199): 1; Taste disorder, % of subjects (Total of all doses, N 199): (2%); Taste disorder, number of subjects (Total of all doses, N 199): 4; Tremor, % of subjects (Total of all doses, N 199): (1%); Tremor, number of subjects (Total of all doses, N 199): 2; Vomiting, % of subjects (Total of all doses, N 199): (4%); Vomiting, number of subjects (Total of all doses, N 199): 7
